# Source: PMC6459903, “The enzymes OSC1 and CYP716A263 produce a high variety of triterpenoids in the latex of Taraxacum koksaghyz” (Scientific Reports, 2019)
# Assays:
# Format in all cases: cell-based
# TkLUP = biological target: T1, TkLUP (Taraxacum kok-saghyz, UniProt A0A3B1EU92); assay: transient expression in N. benthamiana leaves, GC-MS; conditions: with Tkhmgrc1; endogenous 2,3-oxidosqualene; predominant product
# T1 construct: gene Lup; full-length cDNA; transient expression in Nicotiana benthamiana leaves
# T1 sequence (A0A3B1EU92 1-758): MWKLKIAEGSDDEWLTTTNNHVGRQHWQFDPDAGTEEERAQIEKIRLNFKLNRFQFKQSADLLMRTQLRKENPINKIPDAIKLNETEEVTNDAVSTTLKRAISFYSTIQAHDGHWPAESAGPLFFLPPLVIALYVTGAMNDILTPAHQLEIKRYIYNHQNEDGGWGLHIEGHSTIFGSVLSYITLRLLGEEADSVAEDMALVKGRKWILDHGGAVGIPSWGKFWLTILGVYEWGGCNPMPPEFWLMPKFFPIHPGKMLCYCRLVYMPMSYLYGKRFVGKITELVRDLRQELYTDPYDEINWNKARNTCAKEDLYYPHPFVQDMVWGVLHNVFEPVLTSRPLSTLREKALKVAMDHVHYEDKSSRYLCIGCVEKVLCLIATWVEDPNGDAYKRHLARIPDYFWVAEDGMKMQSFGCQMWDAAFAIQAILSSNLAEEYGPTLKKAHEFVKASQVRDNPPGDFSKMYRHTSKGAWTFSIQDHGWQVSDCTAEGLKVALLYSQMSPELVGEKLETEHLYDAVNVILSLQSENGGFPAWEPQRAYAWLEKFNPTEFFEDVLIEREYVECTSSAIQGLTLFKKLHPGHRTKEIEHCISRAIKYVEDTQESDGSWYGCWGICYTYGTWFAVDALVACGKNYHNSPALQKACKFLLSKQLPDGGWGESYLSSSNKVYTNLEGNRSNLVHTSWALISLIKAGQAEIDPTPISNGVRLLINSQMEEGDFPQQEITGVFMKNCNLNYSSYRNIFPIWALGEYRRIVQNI
# CYP716A263 = biological target: T2, CYP716A263 (Taraxacum kok-saghyz, UniProt A0A3S5GS06); assay: co-expression in N. benthamiana leaves, GC-MS; conditions: C-3 oxidation to lupenone; lupeol formed in situ by co-expressed TkLUP with Tkhmgrc1
# T2 construct: full-length 473 residues (1,422 bp), from latex cDNA; transient expression in Nicotiana benthamiana leaves with host reductase
# T2 sequence (A0A3S5GS06 1-473): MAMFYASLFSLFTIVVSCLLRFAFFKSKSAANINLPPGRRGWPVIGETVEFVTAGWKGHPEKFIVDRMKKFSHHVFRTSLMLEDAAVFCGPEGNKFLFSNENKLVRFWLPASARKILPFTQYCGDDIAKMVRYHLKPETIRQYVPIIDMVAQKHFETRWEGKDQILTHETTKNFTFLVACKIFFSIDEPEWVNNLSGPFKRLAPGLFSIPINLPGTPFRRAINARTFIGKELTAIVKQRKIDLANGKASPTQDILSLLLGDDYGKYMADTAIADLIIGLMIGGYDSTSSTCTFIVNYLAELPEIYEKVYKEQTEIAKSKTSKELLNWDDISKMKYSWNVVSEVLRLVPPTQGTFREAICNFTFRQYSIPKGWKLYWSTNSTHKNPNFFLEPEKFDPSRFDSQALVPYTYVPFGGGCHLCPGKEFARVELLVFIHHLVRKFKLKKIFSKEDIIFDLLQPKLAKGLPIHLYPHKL
# CYP716A263/AtR2 = biological target: T3, CYP716A263/AtR2 (Taraxacum kok-saghyz, UniProt A0A3S5GS06); assay: co-expression in S. cerevisiae, GC-MS; conditions: C-3 oxidation to taraxasterone; taraxasterol formed in situ by co-expressed TkLUPN-TkOSC1C; AtR2 reductase
# T3 construct: full-length P450, 473 residues, co-expressed with Arabidopsis thaliana reductase AtR2 in S. cerevisiae CEN.PK2-1C; with NADPH--cytochrome P450 reductase 2 (Arabidopsis thaliana)
# T3 sequence (A0A3S5GS06 1-473): as above
# T3 sequence (Q9SUM3 whole entry partner): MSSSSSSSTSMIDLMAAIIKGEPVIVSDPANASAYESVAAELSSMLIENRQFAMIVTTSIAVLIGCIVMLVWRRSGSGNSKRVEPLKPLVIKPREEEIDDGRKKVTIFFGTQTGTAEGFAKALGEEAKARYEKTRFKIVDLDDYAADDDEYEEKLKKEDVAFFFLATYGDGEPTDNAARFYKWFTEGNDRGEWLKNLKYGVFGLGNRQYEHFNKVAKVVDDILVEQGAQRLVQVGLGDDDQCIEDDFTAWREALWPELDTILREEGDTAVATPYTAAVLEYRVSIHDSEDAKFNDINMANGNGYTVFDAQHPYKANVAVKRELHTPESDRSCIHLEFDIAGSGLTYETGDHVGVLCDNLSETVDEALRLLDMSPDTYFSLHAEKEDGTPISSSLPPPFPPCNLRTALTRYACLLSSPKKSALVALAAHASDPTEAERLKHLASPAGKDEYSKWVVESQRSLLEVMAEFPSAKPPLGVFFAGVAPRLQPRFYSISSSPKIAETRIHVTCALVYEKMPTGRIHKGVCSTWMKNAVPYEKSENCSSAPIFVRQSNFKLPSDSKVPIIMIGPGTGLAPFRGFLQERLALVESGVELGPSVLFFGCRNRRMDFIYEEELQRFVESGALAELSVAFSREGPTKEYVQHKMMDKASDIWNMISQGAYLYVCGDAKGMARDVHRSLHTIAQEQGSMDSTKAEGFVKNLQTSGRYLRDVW
# TkOSC6 = biological target: T4, TkOSC6 (Taraxacum kok-saghyz, UniProt A0A3S7RZ84); assay: expression in S. cerevisiae, GC-MS; conditions: endogenous 2,3-oxidosqualene as substrate; erg7 repressed by CuSO4; main product
# T4 construct: gene OSC6; unmodified full-length protein; expressed in S. cerevisiae CEN.PK2-1C and N. benthamiana
# T4 sequence (A0A3S7RZ84 1-758): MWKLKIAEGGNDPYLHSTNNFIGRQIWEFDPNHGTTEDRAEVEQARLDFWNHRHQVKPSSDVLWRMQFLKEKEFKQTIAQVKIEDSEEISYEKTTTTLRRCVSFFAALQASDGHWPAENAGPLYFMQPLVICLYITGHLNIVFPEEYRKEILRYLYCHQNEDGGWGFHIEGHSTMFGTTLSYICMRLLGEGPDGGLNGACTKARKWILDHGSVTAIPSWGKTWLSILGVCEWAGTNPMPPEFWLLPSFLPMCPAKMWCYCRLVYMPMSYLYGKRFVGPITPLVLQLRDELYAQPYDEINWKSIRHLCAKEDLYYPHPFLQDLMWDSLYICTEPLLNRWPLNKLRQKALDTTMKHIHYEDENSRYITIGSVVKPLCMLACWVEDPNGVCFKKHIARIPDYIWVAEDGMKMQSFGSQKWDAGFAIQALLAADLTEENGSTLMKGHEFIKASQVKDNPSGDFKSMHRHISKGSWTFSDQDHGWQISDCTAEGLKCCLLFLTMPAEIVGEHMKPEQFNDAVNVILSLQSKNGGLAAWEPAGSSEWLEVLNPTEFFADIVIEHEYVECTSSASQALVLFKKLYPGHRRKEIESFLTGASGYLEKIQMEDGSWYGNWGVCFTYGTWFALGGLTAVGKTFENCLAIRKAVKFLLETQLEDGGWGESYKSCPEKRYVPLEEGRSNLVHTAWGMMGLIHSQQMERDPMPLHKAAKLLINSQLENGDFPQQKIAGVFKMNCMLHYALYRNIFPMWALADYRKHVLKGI
compound,measurement,setting,value
C=C(C)[C@@H]1CC[C@]2(C)CC[C@]3(C)[C@H](CC[C@@H]4[C@@]5(C)CC[C@H](O)C(C)(C)[C@@H]5CC[C@]43C)[C@@H]12 [lupeol],"transient expression in N. benthamiana leaves, GC-MS",TkLUP,TkLUP in combination with Tkhmgrc1 led to the predominant production of lupeol
same,"co-expression in N. benthamiana leaves, GC-MS",CYP716A263,CYP716A263 is capable of converting lupeol into lupenone and exhibits a C-3 oxidation activity
C=C1CC[C@]2(C)CC[C@]3(C)[C@H](CC[C@@H]4[C@@]5(C)CC[C@H](O)C(C)(C)[C@@H]5CC[C@]43C)[C@H]2[C@@H]1C [taraxasterol],"co-expression in S. cerevisiae, GC-MS",CYP716A263/AtR2,"taraxasterol, as the most abundant product, was converted to taraxasterone"
CC1(C)CC[C@]2(C)CC[C@]3(C)C(=CC[C@@H]4[C@@]5(C)CC[C@H](O)C(C)(C)[C@@H]5CC[C@]43C)[C@@H]2C1 [β-amyrin],"expression in S. cerevisiae, GC-MS",TkOSC6,TkOSC6 expression in yeast led to the identification of β-amyrin as main product
